Consider 14 compounds from patent publication US8410177B2, “Curcumin derivatives” (Indian Institute of Technology Bombay, priority 2009, dated 2013).

Usually melting point stands for the temperature of the solid-liquid transition.

Compound `COc1ccc(/C=C/C(=O)C2C(=O)C[C@H](c3ccc(OC)cc3)[C@H]([N+](=O)[O-])[C@H]2c2ccc(OC)c(OC)c2)cc1` (some centres unmarked) [IX-2, 3-(3,4-Dimethoxyphenyl)-5-(4-Methoxyphenyl)-2-((E)-3-(4-Methoxyphenyl)acryloyl)-4-Nitrocyclohexanone] gave a melting point of 126 to 128 °C. As for `COc1ccc([C@H]2C(C(=O)/C=C/c3ccc(OCc4ccccc4)c(OC)c3)C(=O)C[C@H](c3ccc(OCc4ccccc4)cc3)[C@@H]2[N+](=O)[O-])cc1` (some centres unmarked) [IX-16, 2-((E)-3-(4-(benzyloxy)-3-methoxyphenyl)acryloyl)-5-(4-(benzyloxy)phenyl)-3-(4-methoxyphenyl)-4-nitrocyclohexanone], the figure is 76 to 78 °C. Compound `COc1ccc(/C=C/C(=O)C2C(=O)C[C@H](c3ccc(OC)cc3)[C@H]([N+](=O)[O-])[C@H]2/C=C/c2ccccc2)cc1` (some centres unmarked) [IX-9, 5-(4-Methoxyphenyl)-2-((E)-3-(4-Methoxyphenyl)acryloyl)-4-nitro-3-styrylcyclohexanone] displayed a melting point of 88 to 90 °C. The value for `COc1ccc(/C=C/C(=O)C2C(=O)C[C@H](c3ccc(OC)cc3)[C@H]([N+](=O)[O-])[C@H]2c2ccccc2)cc1` (some centres unmarked) [IX-3, 5-(4-Methoxyphenyl)-2-((E)-3-(4-Methoxyphenyl)acryloyl)-4-Nitro-3-Phenylcyclohexanone] was 164 to 165 °C; that for `COc1ccc(/C=C/C(=O)C2C(=O)C[C@H](c3ccc(OC)cc3)[C@H]([N+](=O)[O-])C2c2ccc(Cl)cc2)cc1` (some centres unmarked) [IX-4, 3-(4-Chlorophenyl)-5-(4-Methoxyphenyl)-2-((E)-3-(4-Methoxyphenyl)acryloyl)-4-Nitrocyclohexanone] was 156 to 158 °C; that for `COc1ccc(/C=C/C(=O)C2C(=O)C[C@H](c3ccc(OC)cc3)[C@H]([N+](=O)[O-])[C@H]2c2ccc3c(c2)OCO3)cc1` (some centres unmarked) [IX-6, 3-(Benzo[a][1,3]dioxol-5-yl)-5-(4-Methoxyphenyl)-2-((E)-3-(4-Methoxyphenyl)acryloyl)-4-Nitrocyclohexanone] was 154 to 156 °C. `COc1ccc(/C=C/C(=O)C2C(=O)C[C@H](c3ccc(OC)cc3)[C@H]([N+](=O)[O-])[C@H]2c2ccco2)cc1` (some centres unmarked) [IX-7, 3-(Furan-2-yl)-5-(4-Methoxyphenyl)-2-((E)-3-(4-Methoxyphenyl)acryloyl)-4-Nitrocyclohexanone] returned a melting point of 192 °C. The value for `COc1ccc(C2C(C(=O)/C=C/c3ccc(OC)c(OC)c3)C(=O)C[C@H](c3ccc(OC)c(OC)c3)[C@@H]2[N+](=O)[O-])cc1` (some centres unmarked) [IX-10, 5-(3,4-dimethoxyphenyl)-3-(4-methoxyphenyl)-2-((E)-3-(3,4-dimethoxyphenyl)acryloyl)-4-Nitrocyclohexanone] was 158 to 160 °C; that for `CCCC[C@H]1C(C(=O)/C=C/c2ccc(OC)cc2)C(=O)C[C@H](c2ccc(OC)cc2)[C@@H]1[N+](=O)[O-]` (some centres unmarked) [IX-15, 3-butyl-5-(4-methoxyphenyl)-2-((E)-3-(4-methoxyphenyl)acryloyl)-4-nitrocyclohexanone] was 127 to 129 °C; that for `COc1ccc(/C=C/C(=O)C2C(=O)C[C@H](c3ccc(OC)cc3)[C@H]([N+](=O)[O-])[C@H]2C2CCCCC2)cc1` (some centres unmarked) [IX-14, 3-cyclohexyl-5-(4-methoxyphenyl)-2-((E)-3-(4-methoxyphenyl)acryloyl)-4-nitrocyclohexanone] was 203 to 205 °C. As for `COc1ccc([C@H]2C(C(=O)/C=C/c3ccccc3)C(=O)C[C@H](c3ccccc3)[C@@H]2[N+](=O)[O-])cc1` (some centres unmarked) [IX-12, 3-(4-methoxyphenyl)-4-nitro-5-phenyl-2-((E)-3-phenylacryloyl)cyclohexanone], the figure is 108 to 110 °C. As for `COc1ccc([C@H]2C(C(=O)/C=C/c3ccc(O)c(OC)c3)C(=O)C[C@H](c3ccc(O)c(OC)c3)[C@@H]2[N+](=O)[O-])cc1` (some centres unmarked) [IX-11, 5-(4-hydroxy-3-methoxyphenyl)-2-((E)-3-(4-hydroxy-3-methoxyphenyl)acryloyl)-3-(4-methoxyphenyl)-4-nitrocyclohexanone], the figure is 83 to 85 °C; as for `COc1ccc(/C=C/C(=O)C2C(=O)C[C@H](c3ccc(OC)cc3)[C@H]([N+](=O)[O-])[C@H]2c2cccs2)cc1` (some centres unmarked) [IX-5, 5-(4-Methoxyphenyl)-2-((E)-3-(4-Methoxyphenyl)acryloyl)-4-Nitro-3-(Thiophen-2-yl)cyclohexanone], 160 to 162 °C.

As to `COc1ccc(/C=C/C(=O)C2C(=O)CC(c3ccc(OC)cc3)[C@H]([N+](=O)[O-])C2c2ccc(OC)cc2)cc1` (some centres unmarked) [IX-1, 3,5-Bis(4-Methoxyphenyl)-2-((E)-3-(4-Methoxyphenyl)acryloyl)-4-Nitrocyclohexanone], the melting point was in the range of 200 to 202 °C.
